Each structure is given as a SMILES string.

What all share (assay type): in vivo
The test system of assay [1] is soybean (Glycine max var. Winchester). Description: Postemergence herbicidal activity, soybean. Particulars: rate of application 0.3 Kg/Ha, rated after 12-17 days. As to the method:
(§1) The benzofused heterocyclic compounds of this invention were tested for pre- and postemergence herbicidal activity using a variety of crops and weeds. The test plants included soybean (Glycine max var. Winchester), field corn (Zea mays var. Pioneer 3732), wheat (Triticum aestivum var. Lew), morningglory (Ipomea lacunosa or Ipomea hederacea), velvetleaf (Abutilon theophrasti), green foxtail (Setaria viridis), Johnsongrass (Sorghum halepense), blackgrass (Aloepecurus myosuroides), common chickweed (Stellaria media), and common cocklebur (Xanthium strumarium L.).
(§2) For preemergence testing, two disposable fiber flats (8 cm×15 cm×25 cm) for each rate of application of each candidate herbicide were filled to an approximate depth of 6.5 cm with steam-sterilized sandy loam soil. The soil was leveled and impressed with a template to provide five evenly spaced furrows 13 cm long and 0.5 cm deep in each flat. Seeds of soybean, wheat, corn, green foxtail, and johnsongrass were planted in the furrows of the first flat, and seeds of velvetleaf, morningglory, common chickweed, cocklebur, and blackgrass were planted in the furrows of the second flat. The five-row template was employed to firmly press the seeds into place. A topping soil of equal portions of sand and sandy loam soil was placed uniformly on top of each flat to a depth of approximately 0.5 cm. Flats for postemergence testing were prepared in the same manner except that they were planted 9-14 days prior to the preemergence flats and were placed in a greenhouse and watered, thus allowing the seeds to germinate and the foliage to develop.
(§3) In both pre- and postemergence tests, a stock solution of the candidate herbicide was prepared by dissolving 0.27 g of the compound in 20 mL of water/acetone (50/50) containing 0.5% v/v sorbitan monolaurate. For an application rate of 3000 g/ha of herbicide a 10 mL portion of the stock solution was diluted with water/acetone (50/50) to 45 mL.
(§4) The preemergence flats were initially subjected to a light water spray. The four flats were placed two by two along a conveyor belt (i.e., the two preemergence followed by the two postemergence flats). The conveyor belt fed under a spray nozzle mounted about ten inches above the post-emergent foliage. The preemergent flats were elevated on the belt so that the soil surface was at the same level below the spray nozzle as the foliage canopy of the postemergent plants. The spray of herbicidal solution was commenced and once stabilized, the flats were passed under the spray at a speed to receive a coverage equivalent of 100 L/ha. At this coverage the application rates are those shown in the above table for the individual herbicidal solutions. The preemergence flats were watered immediately thereafter, placed in the greenhouse and watered regularly at the soil surface. The postemergence flats were immediately placed in the green-house and not watered until 24 hours after treatment with the test solution. Thereafter they were regularly watered at ground level. After 12-17 days the plants were examined and the phytotoxicity data were recorded.
(§5) Phytotoxicity data were taken as percent control. Percent control was determined by a method similar to the 0 to 100 rating system disclosed in “Research Methods in Weed Science,” 2nd ed., B. Truelove, Ed.; Southern Weed Science Society; Auburn University, Auburn, Ala., 1977.

The subject of assay [2] is Johnsongrass (Sorghum halepense). Kind of assay: Postemergence herbicidal activity, johnsongrass. The conditions noted are these: rate of application 0.3 Kg/Ha, rated after 12-17 days. How it is done:
as §1, §2, §3, §4, §5

For assay [3], the system named is morningglory (Ipomea lacunosa or Ipomea hederacea). Kind of assay: Postemergence herbicidal activity, morningglory. The conditions noted are these: rate of application 0.3 Kg/Ha, rated after 12-17 days. As to the method:
as §1, §2, §3, §4, §5

Assay [4] concerns green foxtail (Setaria viridis). Description: Preemergence herbicidal activity, green foxtail. Particulars: Rate of Application 0.3 Kg/Ha, examined after 12-17 days. How it is done: as §1, §2, §3, §4, §5
For assay [5] the test system is unchanged. Kind of assay: Postemergence herbicidal activity, green foxtail. Particulars: rate of application 0.3 Kg/Ha, rated after 12-17 days. How it is done:
as §1, §2, §3, §4, §5

The subject of assay [6] is wheat (Triticum aestivum var. Lew). Description: Postemergence herbicidal activity, wheat. The conditions noted are these: rate of application 0.3 Kg/Ha, rated after 12-17 days. As to the method: as §1, §2, §3, §4, §5
The test system of assay [7] is field corn (Zea mays var. Pioneer 3732). Description: Postemergence herbicidal activity, corn. Particulars: rate of application 0.3 Kg/Ha, rated after 12-17 days. How it is done:
as §1, §2, §3, §4, §5

For assay [8] the test system is unchanged. Description: Preemergence herbicidal activity, corn. Particulars: Rate of Application 0.3 Kg/Ha, examined after 12-17 days. How it is done:
as §1, §2, §3, §4, §5

The subject of assay [9] is common cocklebur (Xanthium strumarium L.). Description: Preemergence herbicidal activity, cocklebur. The conditions noted are these: Rate of Application 0.3 Kg/Ha, examined after 12-17 days. How it is done: as §1, §2, §3, §4, §5
The test system of assay [10] is Johnsongrass (Sorghum halepense). Description: Preemergence herbicidal activity, johnsongrass. Particulars: Rate of Application 0.3 Kg/Ha, examined after 12-17 days. How it is done: as §1, §2, §3, §4, §5
In assay [11] the test system is common cocklebur (Xanthium strumarium L.). Kind of assay: Postemergence herbicidal activity, cocklebur. The conditions noted are these: rate of application 0.3 Kg/Ha, rated after 12-17 days. As to the method:
as §1, §2, §3, §4, §5

In assay [12] the test system is common chickweed (Stellaria media). Kind of assay: Preemergence herbicidal activity, chickweed. The conditions noted are these: Rate of Application 0.3 Kg/Ha, examined after 12-17 days. As to the method: as §1, §2, §3, §4, §5
For assay [13], the system named is morningglory (Ipomea lacunosa or Ipomea hederacea). Kind of assay: Preemergence herbicidal activity, morningglory. Particulars: Rate of Application 0.3 Kg/Ha, examined after 12-17 days. How it is done:
as §1, §2, §3, §4, §5

Assay [14] has as its system velvetleaf (Abutilon theophrasti). Kind of assay: Postemergence herbicidal activity, velvetleaf. The conditions noted are these: rate of application 0.3 Kg/Ha, rated after 12-17 days. How it is done: as §1, §2, §3, §4, §5
Assay [15] shares this test system. Kind of assay: Preemergence herbicidal activity, velvetleaf. The conditions noted are these: Rate of Application 0.3 Kg/Ha, examined after 12-17 days. As to the method:
as §1, §2, §3, §4, §5

Assay [16] deals with soybean (Glycine max var. Winchester). Description: Preemergence herbicidal activity, soybean. Particulars: Rate of Application 0.3 Kg/Ha, examined after 12-17 days. As to the method:
as §1, §2, §3, §4, §5

For assay [17], the system named is common chickweed (Stellaria media). Kind of assay: Postemergence herbicidal activity, chickweed. The conditions noted are these: rate of application 0.3 Kg/Ha, rated after 12-17 days. As to the method: as §1, §2, §3, §4, §5
In assay [18] the test system is wheat (Triticum aestivum var. Lew). Description: Preemergence herbicidal activity, wheat. The conditions noted are these: Rate of Application 0.3 Kg/Ha, examined after 12-17 days. As to the method:
as §1, §2, §3, §4, §5

With `Cn1c(C(F)(F)F)cc(=O)n(-c2ccc(Cl)c3cc(C(C)(C)O)oc23)c1=O` [Compound 241], the “Postemergence herbicidal activity (% control) SOY” value in [1] was found to be 90%. Also, in assay [2], the “Postemergence herbicidal activity (% control) SORHA” value amounted to 70%. Also, in assay [3], the “Postemergence herbicidal activity (% control) IPOSS” value was found to be 100%. Further, the “PREEMERGENCE HERBICIDAL ACTIVITY (% CONTROL) SETVI” value in assay [4] is 100%. In addition, the “Postemergence herbicidal activity (% control) SETVI” value in [5] turned out to be 100%. The “Postemergence herbicidal activity (% control) WHT” value in [6] is given as 60%. For the same molecule, the “Postemergence herbicidal activity (% control) CRN” value in [7] stood at 70%. For the same molecule, the “PREEMERGENCE HERBICIDAL ACTIVITY (% CONTROL) CRN” value in assay [8] came out at 95%. The “PREEMERGENCE HERBICIDAL ACTIVITY (% CONTROL) XANPE” value in assay [9] amounted to 100%. Besides, the “PREEMERGENCE HERBICIDAL ACTIVITY (% CONTROL) SORHA” value in assay [10] is 100%. The “Postemergence herbicidal activity (% control) XANPE” value in assay [11] is reported as 95%. Besides, the “PREEMERGENCE HERBICIDAL ACTIVITY (% CONTROL) STEME” value in assay [12] was found to be 100%. Also, in assay [13], the “PREEMERGENCE HERBICIDAL ACTIVITY (% CONTROL) IPOSS” value is 100%. Besides, the “Postemergence herbicidal activity (% control) ABUTH” value in assay [14] came out at 100%. In [15], the “PREEMERGENCE HERBICIDAL ACTIVITY (% CONTROL) ABUTH” value was determined as 100%. In addition, the “PREEMERGENCE HERBICIDAL ACTIVITY (% CONTROL) SOY” value in assay [16] worked out at 60%. For the same molecule, the “Postemergence herbicidal activity (% control) STEME” value in [17] is on record as 85%. For the same molecule, the “PREEMERGENCE HERBICIDAL ACTIVITY (% CONTROL) WHT” value in assay [18] is 70%.
In the case of `CC(O)Cc1cc2c(Cl)cc(F)c(-n3c(=O)cc(C(F)(F)F)n(C)c3=O)c2o1` (stereo not drawn) [Compound 243], in [1], the “Postemergence herbicidal activity (% control) SOY” value is 95%. Moreover, the “Postemergence herbicidal activity (% control) SORHA” value in assay [2] is given as 100%. Moreover, in assay [3], the “Postemergence herbicidal activity (% control) IPOSS” value is reported as 100%. For the same molecule, the “PREEMERGENCE HERBICIDAL ACTIVITY (% CONTROL) SETVI” value in assay [4] stood at 100%. Also, the “Postemergence herbicidal activity (% control) SETVI” value in [5] is reported as 100%. In addition, the “Postemergence herbicidal activity (% control) WHT” value in [6] came out at 70%. Moreover, in [7], the “Postemergence herbicidal activity (% control) CRN” value was 95%. In addition, in assay [8], the “PREEMERGENCE HERBICIDAL ACTIVITY (% CONTROL) CRN” value amounted to 95%. Besides, the “PREEMERGENCE HERBICIDAL ACTIVITY (% CONTROL) XANPE” value in assay [9] is given as 100%. In assay [10], the “PREEMERGENCE HERBICIDAL ACTIVITY (% CONTROL) SORHA” value is 100%. In assay [11], the “Postemergence herbicidal activity (% control) XANPE” value is 100%. Besides, in [12], the “PREEMERGENCE HERBICIDAL ACTIVITY (% CONTROL) STEME” value turned out to be 100%. In addition, the “PREEMERGENCE HERBICIDAL ACTIVITY (% CONTROL) IPOSS” value in [13] was determined as 100%. Besides, the “Postemergence herbicidal activity (% control) ABUTH” value in [14] is given as 100%. The “PREEMERGENCE HERBICIDAL ACTIVITY (% CONTROL) ABUTH” value in assay [15] worked out at 100%. Further, the “PREEMERGENCE HERBICIDAL ACTIVITY (% CONTROL) SOY” value in assay [16] turned out to be 100%. Besides, the “Postemergence herbicidal activity (% control) STEME” value in assay [17] is given as 100%. In assay [18], the “PREEMERGENCE HERBICIDAL ACTIVITY (% CONTROL) WHT” value came out at 80%.
As to `Cn1c(C(F)(F)F)cc(=O)n(-c2c(F)cc(Cl)c3cc(C(C)(C)NS(C)(=O)=O)oc23)c1=O` [Compound 255], the “Postemergence herbicidal activity (% control) SOY” value in assay [1] is 100%. In addition, the “Postemergence herbicidal activity (% control) SORHA” value in assay [2] came to 100%. In addition, the “Postemergence herbicidal activity (% control) IPOSS” value in assay [3] is listed as 100%. For the same molecule, the “PREEMERGENCE HERBICIDAL ACTIVITY (% CONTROL) SETVI” value in [4] amounted to 100%. The “Postemergence herbicidal activity (% control) SETVI” value in assay [5] came out at 100%. Besides, in assay [6], the “Postemergence herbicidal activity (% control) WHT” value is reported as 100%. For the same molecule, in assay [7], the “Postemergence herbicidal activity (% control) CRN” value is 100%. In addition, in assay [8], the “PREEMERGENCE HERBICIDAL ACTIVITY (% CONTROL) CRN” value was determined as 95%. The “PREEMERGENCE HERBICIDAL ACTIVITY (% CONTROL) XANPE” value in [9] worked out at 100%. Also, in [10], the “PREEMERGENCE HERBICIDAL ACTIVITY (% CONTROL) SORHA” value was determined as 100%. Also, the “Postemergence herbicidal activity (% control) XANPE” value in [11] came to 100%. For the same molecule, the “PREEMERGENCE HERBICIDAL ACTIVITY (% CONTROL) STEME” value in [12] was determined as 100%. The “PREEMERGENCE HERBICIDAL ACTIVITY (% CONTROL) IPOSS” value in assay [13] is given as 100%. In addition, the “Postemergence herbicidal activity (% control) ABUTH” value in assay [14] is reported as 100%. Also, in [15], the “PREEMERGENCE HERBICIDAL ACTIVITY (% CONTROL) ABUTH” value was found to be 100%. Moreover, in [16], the “PREEMERGENCE HERBICIDAL ACTIVITY (% CONTROL) SOY” value is on record as 100%. The “Postemergence herbicidal activity (% control) STEME” value in assay [17] amounted to 100%. The “PREEMERGENCE HERBICIDAL ACTIVITY (% CONTROL) WHT” value in assay [18] is on record as 90%.
